Data taken from US10420759B2, “Small molecule therapies for pulmonary hypertension” (Creighton University, priority 2016, dated 2019).

Assays:
[1] = test system: mouse isolated extralobar pulmonary arteries; test: Relaxation of pre-constricted mouse isolated extralobar pulmonary artery rings (isometric tension); format: cell-based; conditions: for relaxation: 1 μM; for EC50: Mus musculus
From the text: Mouse extralobar pulmonary arteries were isolated and prepared using a modification of a previously reported procedure (see e.g., Bockman et al., 1996, J. Pharmacol. Exp. Ther. 278:1235-1243). Mice were euthanized with CO2, the chest was opened, and the heart and lung combined were isolated from surrounding tissue. The main pulmonary artery was isolated from its origin at the right ventricle, past its bifurcation into the right and left pulmonary arteries. The artery segment was removed and placed in Krebs solution (composition in mM: NaCl 126, KCl 5.5, CaCl2 2.5, NaH2PO4 1.2, MgCl2 1.2, NaHCO3 25, dextrose 11.1, Na2Ca EDTA 0.029) equilibrated with 95%02-5% CO2 (pH 7.4). The pulmonary artery segment was cleaned of connective tissue and the main pulmonary artery and its right and left branches were cut into 2 mm long rings. The rings were mounted using 2 stainless steel pins (0.1 mm in diameter) passed through the artery lumen. One pin was attached to a Kent isometric force transducer (Kent Scientific Corp, Torrington Conn.) for measurement of isometric tension while the second pin was held in a fixed position. This allowed for measurement of contraction and relaxation of the ring in the circular direction. Mounted rings were placed in 10 mL of Krebs solution in glass muscle chambers (Radnoti, Monrovia, Calif.) gassed with 95% 02-5% CO2, and maintained at 37° C. Rings were washed with Krebs solution and equilibrated for 90-120 min at a passive resting tension of 150 mg before experiments with test agents were started.
Mouse isolated extralobar pulmonary arteries were pre-constricted with 250 nM 5-HT, a concentration that causes submaximal constriction, as shown in FIG. 2A. Cumulative addition of pirfenidone and CXN-8 caused a concentration-dependent relaxation of mouse pulmonary arteries with a maximal relaxation of 84.9±3.4% and 76.7±7.0%, respectively, as shown in FIG. 2B.
The endothelium was removed from pulmonary arteries by inserting a small (200 μm diameter) wire into the inside lumen of the arteries and gently rubbing the internal surface. To test for the presence of functional endothelium, rings with and without rubbing were contracted with 250 nM 5-HT followed by relaxation using 1 μM of the endothelium dependent vasorelaxant acetylcholine. Rings that relaxed by 5% or less were considered as lacking the endothelium. Rings with and without endothelium were used to test the relaxant effects of CXN-8.
The synthesis of NO is mediated by a family of NO synthase enzymes. It is well accepted that acetylcholine induces relaxation of pulmonary arteries via endothelium-dependent NO production. Nitric oxide production was inhibited in pulmonary arteries by 30 min incubation with the nitric oxide synthesis inhibitor nitro-L-arginine methyl ester (L-NAME, 100 μM). To test for nitric oxide synthase inhibition by L-NAME, rings were contracted with 250 nM 5-HT followed by relaxation using 1 μM of the nitric oxide dependent vasorelaxant acetylcholine. The relaxant effects of CXN-8 were then tested in rings in the absence (with nitric oxide) and the presence (without nitric oxide) of L-NAME.

[2] = test system: small pulmonary arteries in mouse precision-cut lung slices; test: Relaxation of pre-constricted small pulmonary arteries in mouse precision-cut lung slices; format: cell-based; conditions: for maximal relaxation: % relaxation of pre-constriction to 100 nM 5-HT; for EC50: Mus musculus, pre-constricted with 100 nM 5-HT
Protocol: Precision cut lung slices were prepared using a modification of previously reported procedures (see e.g., Jiang et al., 2010, J. Pharmacol. Exp. Ther. 334:703-709) and based on the method described by Perez-Joghbi and Sanderson (see e.g., Perez-Joghbi, J. F. and Sanderson, M. J., Am. J. Physiol., 2007, 293:L1000-L1011). Mice were euthanized with CO2, a 2 cm long incision was made in the midline of the neck above the trachea and the trachea was isolated from surrounding tissue. The trachea was cut open and cannulated with PE 90 plastic tubing. A solution of 2% low melting point agarose (Sigma-Aldrich, St. Louis Mo.) in Hanks Buffered Salt solution (HBSS) was prepared at 37° C. Lungs were inflated by injecting 1.2 ml of 2% agarose followed by 0.2 ml of air through the tracheal cannula. The chest was then opened along the midline and the heart was exposed. A solution of 6% gelatin (Sigma-Aldrich, St. Louis Mo.) was prepared in HBSS and 0.4 mL was injected into the right ventricle using a 1 mL syringe and 26 gauge needle, to fill the pulmonary arteries with gelatin. The mouse was cooled to 4° C. for 15 min to harden the agarose and gelatin to stiffen the lung for sectioning. The individual lung lobes were then isolated, glued to a platform and sliced perpendicular to the long axis of the lung. 150 μm thick slices were prepared in ice cold HBSS using an EMS-4000 tissue slicer (Electron Microscopy Sciences, Fort Wash. Pa.). The slices were maintained in sterile, serum-free Dulbecco's modified Eagle's medium (DMEM, Gibco, Grand Island, N.Y.) containing penicillin (100 U/mL, Cellgro, Manassas, Va.), streptomycin (100 μg/mL, Cellgro, Manassas, Va.) and amphotericin B (1.5 μg/mL, Cellgro, Manassas, Va.) at 37° C. and 5% CO2+95% air in a humidified incubator for not more than 3 days.
The method used to measure constriction and relaxation of pulmonary arteries in lung slices is a modification of a method previously described that was used to measure constriction and relaxation of mouse airways (see e.g., Jiang et al., 2010 J. Pharmacol. Exp. Ther. 334:703-709). Lung slices were placed on glass coverslips in a 1 mL volume incubation chamber and held in place with nylon mesh (Small Parts Inc, Miami Lakes, Fla.). The chamber was placed on the stage of a Nikon (Melville, N.Y.) TE200 inverted microscope at room temperature and slices incubated in HBSS containing 10 mM HEPES buffer. Pulmonary arteries in lung slices were imaged using a 20× objective and images recorded using a CoolSNAP HQ2 digital camera (Photometrics, Tucson Ariz.). Images in the absence and the presence of the vasoconstrictor 5-HT (Sigma-Aldrich, St. Louis, Mo.) and the vasorelaxants pirfenidone (Sigma-Aldrich, St. Louis Mo.) and CXN-8, CXN-9 and CXN-16 were collected and vasoconstriction and vasorelaxation was calculated by pixel summing of the cross-sectional area of the pulmonary artery lumen before and after addition of the test agent, using ImageJ software (http://imagej.nih.gov). A decrease in cross-sectional area was defined as vasoconstriction while an increase in cross-sectional area was defined as vasorelaxation, as shown in FIGS. 1A-1B.
First, small pulmonary arteries were pre-constricted in mouse precision-cut lung slices with 100 nM 5-HT, a concentration that causes submaximal constriction of pulmonary arteries, as shown in FIG. 1A.

RGS2−/− mice = test: RVSP in RGS2 knockout mice, acute intravenous CXN-8; format: in vivo, mouse; conditions: RGS2 KO mice, 4.6 mg/kg i.v. via femoral vein; baseline 36.7±1.9 mmHg
Protocol: (§1) Mice (20-25 g) were anesthetized via an intraperitoneal (i.p.) injection of a combination of xylazine (10 mg/kg body weight) and ketamine (100 mg/kg body weight). One-half dose was given as supplemental anesthesia as needed. Animals were placed on a heating pad set to maintain body temperature at approximately 37° C. The neck and upper chest area were cleaned with 70% isopropyl alcohol and a 2 cm long incision was made anterior to the manubrium on the right side and above the jugular fossa. The jugular fossa was identified and the external jugular vein was isolated from surrounding tissue. The anterior projection of the jugular vein was tied off with 8-0 silk suture and a 1 mm incision was made in the jugular vein. A 1 French Mikro-Tip pressure catheter (Millar Inc, Houston, Tex.) catheter was inserted into the jugular vein and advanced through the right atrium into the right ventricle to measure ventricular systolic pressure of mice via a pressure transducer using PowerLab monitoring hardware and software (AD Instruments, Colorado Springs, Colo., USA). The pressure catheter was secured in place using an 8-0 silk suture tied around the catheterized jugular vein. […]
(§2) CXN-8 was administered intravenously in a dose-escalation manner in 15 minute intervals from doses of 0.14 mg/kg to 4.6 mg/kg. Hemodynamic indices, including heart rate (HR) and RVSP were measured. […]

[3] = test system: mouse isolated extralobar pulmonary arteries; test: Relaxation of pre-constricted mouse isolated extralobar pulmonary artery rings (isometric tension); format: cell-based; conditions: for EC50: Mus musculus
hypoxic mice (C57BL/6) = test: RVSP in chronic hypoxia model of PH in mice, acute intravenous CXN-8; format: in vivo, mouse; conditions: 1.4 mg/kg i.v. via femoral vein, baseline 56.4±1.0 mmHg
Protocol: as §1, §2

eNOS−/− mice = test: Right ventricular systolic pressure (RVSP) in eNOS-knockout mice, acute intravenous CXN-8; format: in vivo, mouse; conditions: 4.6 mg/kg i.v. via femoral vein, baseline 40.7±7.6 mmHg
Protocol: as §1, §2

[4] = intact rings pre-constricted with 250 nM 5-HT
[5] = 250 nM 5-HT, pre-treatment with L-NAME (100 μM)
[6] = endothelium-denuded arteries, 250 nM 5-HT

SMILES: CC(=O)OCC[N+](C)(C)C [acetylcholine, reference compound]
- relaxation ([1]; 250 nM 5-HT-pre-contracted endothelium-denuded arteries): 5%
- relaxation ([1]; 250 nM 5-HT-pre-contracted endothelium-intact arteries): 42%

SMILES: Cc1ccc(=O)n(-c2ccccc2)c1 [pirfenidone, 5-methyl-1-phenylpyridin-2(1H)-one, reference compound]
- maximal relaxation [2]: 81.2±4.8%
- EC50 ([2]; cumulative addition): 14300 nM
- EC50 [1, 4]: 94000 nM
- maximal relaxation [1, 4]: 84.9±3.4%

SMILES: Cc1ccc(=O)n(-c2ccc(OCCCCN(C)C)cc2)c1 [CXN-16, 1-(4-(4-(dimethylamino)butoxy)phenyl)-5-methylpyridin-2(1H)-one]
- EC50 ([2]; unit inferred): 1700 nM

SMILES: Cc1ccc(=O)n(-c2ccc(OCCCN3CCCCC3)cc2)c1 [CXN-8, 5-methyl-1-(4-(3-(piperidin-1-yl)propoxy)phenyl)pyridin-2(1H)-one]
- RVSP after treatment (RGS2−/− mice): 19.6±0.9 mmHg
- EC50 ([3]; ET-1 pre-contracted arteries): 21.7 nM
- EC50 ([3]; U46619 pre-contracted arteries): 40.3 nM
- maximal relaxation ([3]; U46619 (20 nM) pre-contracted arteries): 70.6±7.1%
- maximal relaxation ([3]; endothelin 1 (ET-1, 10 nM) pre-contracted arteries): 86.6±4.1%
- maximal relaxation [2]: 77.1±9.6%
- EC50 [2]: 5.6 nM
- maximal relaxation ([1]; 250 nM 5-HT, absence of L-NAME): 74.5±7.4%
- maximal relaxation [1, 5]: 45.5±6.2%
- EC50 ([1]; 250 nM 5-HT, absence of L-NAME): 5.6 nM
- EC50 [1, 5]: 9.9 nM
- EC50 [1, 6]: 10.9 nM
- EC50 [1, 4]: 5.2 nM
- maximal relaxation [1, 6]: 47.2±2.9%
- maximal relaxation [1, 4]: 76.7±7.0%
- RVSP after treatment (hypoxic mice (C57BL/6)): 37.4±1.7 mmHg
- RVSP after treatment (eNOS−/− mice): 29.3±1.5 mmHg

SMILES: Cc1ccc(=O)n(-c2ccc(OCCCCN3CCCCC3)cc2)c1 [CXN-9, 5-methyl-1-(4-(4-(piperidin-1-yl)butoxy)phenyl)pyridin-2(1H)-one]
- EC50 [2]: 69.8 nM
